Reference: PubChem BioAssay AID328 (DTP/NCI, 2004)
Values joined by “and” are separate entries in the source; they are usually repeats but may differ in a detail not shown here. Equal values may be shown once. Toxic doses and inconclusive results are not listed. Rule for the calls: active = survival T/C of 150% or more; inactive = T/C below 125% in these data.

Tested on: BDF1 mice, P388 leukemia ip, median survival T/C
Test: NCI In Vivo Anticancer Drug Screen. Data for tumor model P388 Leukemia (intraperitoneal) in B6D2F1 (BDF1) mice
Conditions: endpoint: median survival time, higher = longer survival
Summary of the method: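 Antitumour effect was judged in vivo: survival in drug-treated mice, normalised to that of vehicle-dosed controls, gives the reported T/C.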

[1] = dose: 100.0 mg/kg/injection, schedule: Q04DX003 (ip), vehicle: saline with Tween-80
[2] = dose: 200.0 mg/kg/injection, schedule: Q04DX003 (ip), vehicle: saline with Tween-80
[3] = dose: 50.0 mg/kg/injection, schedule: Q01DX009 (ip), vehicle: saline with Tween-80
[4] = dose: 100.0 mg/kg/injection, schedule: Q01DX009 (ip), vehicle: saline with Tween-80
[5] = dose: 200.0 mg/kg/injection, schedule: Q01DX009 (ip), vehicle: saline with Tween-80
[6] = dose: 100.0 mg/kg/injection, schedule: Q01DX009 (ip), vehicle: Klucel (hydroxypropylcellulose) (HPC)
[7] = dose: 200.0 mg/kg/injection, schedule: Q01DX009 (ip), vehicle: Klucel (hydroxypropylcellulose) (HPC)
[8] = dose: 400.0 mg/kg/injection, schedule: Q01DX009 (ip), vehicle: Klucel (hydroxypropylcellulose) (HPC)
[9] = dose: 50.0 mg/kg/injection, schedule: Q01DX009 (ip), vehicle: saline
[10] = dose: 100.0 mg/kg/injection, schedule: Q01DX009 (ip), vehicle: saline
[11] = dose: 200.0 mg/kg/injection, schedule: Q01DX009 (ip), vehicle: saline
[12] = dose: 100.0 mg/kg/injection, schedule: Q04DX003 (ip), vehicle: gum acacia
[13] = dose: 200.0 mg/kg/injection, schedule: Q04DX003 (ip), vehicle: gum acacia
[14] = dose: 12.5 mg/kg/injection, schedule: Q01DX009 (ip), vehicle: saline with Tween-80
[15] = dose: 25.0 mg/kg/injection, schedule: Q01DX009 (ip), vehicle: saline with Tween-80

Measured: T/C

CN1Cc2c(ccc3c2OCO3)[C@@H]2[C@H](O)Cc3cc4c(cc3[C@@H]21)OCO4
inactive: dose: 50.0 mg/kg/injection, schedule: Q01DX010 (ip), vehicle: saline 100 % of control | dose: 100.0 mg/kg/injection, schedule: Q01DX010 (ip), vehicle: saline 100 % of control

Cc1nc2c(=O)n(C)c(=O)n(C)c2n1C
inactive: dose: 50.0 mg/kg/injection, schedule: Q04DX003 (ip), vehicle: saline with Tween-80 100 % of control | [1] 90 % of control | [2] 100 % of control

O=C(Nc1cccc(Cl)c1)C1CCCC1=Nc1cccc(Cl)c1 (stereo not drawn)
inactive: [3] 100 % of control | [4] 106 % of control

CN(C)CCC(O)Cc1ccccc1 (stereo not drawn)
inactive: dose: 50.0 mg/kg/injection, schedule: Q04DX003 (ip), vehicle: acetone 100 % of control | dose: 100.0 mg/kg/injection, schedule: Q04DX003 (ip), vehicle: acetone 100 % of control | dose: 200.0 mg/kg/injection, schedule: Q04DX003 (ip), vehicle: acetone 105 % of control

C/C(=C\c1ccc(N(C)C)cc1C)[N+](=O)[O-]
inactive: [3] 116 % of control and 118 % of control | [4] 114 % of control and 124 % of control | [5] 122 % of control

CS(=O)(=O)CC(O)(c1ccccc1)c1cccnc1 (stereo not drawn)
inactive: [3] 98 % of control | [4] 104 % of control | [5] 98 % of control

OCCN=Cc1ccccc1
inactive: [1] 100 % of control | [2] 100 % of control

O=CNc1c(Cl)c(Cl)c2c(c1Cl)Cc1cc(Cl)ccc1-2
inactive: dose: 0.18 mg/kg/injection, schedule: Q01DX009 (ip), vehicle: DMSO 91 % of control | dose: 0.37 mg/kg/injection, schedule: Q01DX009 (ip), vehicle: DMSO 95 % of control | dose: 0.75 mg/kg/injection, schedule: Q01DX009 (ip), vehicle: DMSO 100 % of control | dose: 3.0 mg/kg/injection, schedule: Q01DX009 (ip), vehicle: DMSO 89 % of control | dose: 12.5 mg/kg/injection, schedule: Q01DX009 (ip), vehicle: DMSO 96 % of control | dose: 50.0 mg/kg/injection, schedule: Q01DX001 (ip), vehicle: Klucel (hydroxypropylcellulose) (HPC) 90 % of control | dose: 100.0 mg/kg/injection, schedule: Q01DX001 (ip), vehicle: Klucel (hydroxypropylcellulose) (HPC) 90 % of control | [6] 116 % of control | dose: 100.0 mg/kg/injection, schedule: Q04DX003 (ip), vehicle: Klucel (hydroxypropylcellulose) (HPC) 90 % of control and 100 % of control | dose: 200.0 mg/kg/injection, schedule: Q01DX001 (ip), vehicle: Klucel (hydroxypropylcellulose) (HPC) 86 % of control | [7] 116 % of control | dose: 200.0 mg/kg/injection, schedule: Q04DX003 (ip), vehicle: Klucel (hydroxypropylcellulose) (HPC) 90 % of control and 91 % of control | [8] 105 % of control | dose: 400.0 mg/kg/injection, schedule: Q04DX003 (ip), vehicle: Klucel (hydroxypropylcellulose) (HPC) 86 % of control and 87 % of control

O=C(O)C1CCCN1C(=O)CCS (stereo not drawn)
inactive: [9] 90 % of control | [10] 90 % of control | [11] 97 % of control

COc1cc(C#N)ccc1O
inactive: dose: 100.0 mg/kg/injection, schedule: Q01DX009 (ip), vehicle: gum acacia 100 % of control | [12] 92 % of control | dose: 200.0 mg/kg/injection, schedule: Q01DX009 (ip), vehicle: gum acacia 87 % of control | [13] 88 % of control

COc1ccc(OC)c2c(/C=C/c3ccc(N(C)C)cc3)ccnc12
inactive: [14] 108 % of control | [15] 103 % of control | [3] 94 % of control and 110 % of control | [4] 103 % of control | [5] 91 % of control

O=S(=O)(Nc1ccccc1Cl)c1ccccc1
inactive: [12] 111 % of control | [13] 96 % of control | dose: 400.0 mg/kg/injection, schedule: Q04DX003 (ip), vehicle: gum acacia 111 % of control

O=c1ccc2cc(Cl)ccc2[nH]1
inactive: dose: 50.0 mg/kg/injection, schedule: Q01DX001 (ip), vehicle: saline with Tween-80 105 % of control | dose: 100.0 mg/kg/injection, schedule: Q01DX001 (ip), vehicle: saline with Tween-80 103 % of control

CCN(CCO)CCNc1ccc(C)c2sc3ccccc3c(=O)c12
inactive: [15] 122 % of control | dose: 66.0 mg/kg/injection, schedule: Q04DX003 (ip), vehicle: saline with Tween-80 103 % of control | [4] 104 % of control | [1] 117 % of control

CCCCOP(=O)(CCCC)OCCCC
inactive: [14] 109 % of control | dose: 12.5 mg/kg/injection, schedule: Q04DX003 (ip), vehicle: saline 100 % of control | [15] 104 % of control | dose: 25.0 mg/kg/injection, schedule: Q04DX003 (ip), vehicle: saline 104 % of control | [3] 109 % of control | dose: 50.0 mg/kg/injection, schedule: Q04DX003 (ip), vehicle: saline 104 % of control

CCOC(=O)C(C)(OCC)OCC
inactive: [9] 105 % of control | [10] 110 % of control | dose: 100.0 mg/kg/injection, schedule: Q01DX009 (ip), vehicle: water 98 % of control | dose: 100.0 mg/kg/injection, schedule: Q04DX003 (ip), vehicle: saline 100 % of control | dose: 100.0 mg/kg/injection, schedule: Q04DX003 (ip), vehicle: water 104 % of control | [11] 115 % of control | dose: 200.0 mg/kg/injection, schedule: Q01DX009 (ip), vehicle: water 101 % of control | dose: 200.0 mg/kg/injection, schedule: Q04DX003 (ip), vehicle: saline 91 % of control | dose: 200.0 mg/kg/injection, schedule: Q04DX003 (ip), vehicle: water 95 % of control | dose: 400.0 mg/kg/injection, schedule: Q04DX003 (ip), vehicle: saline 91 % of control | dose: 400.0 mg/kg/injection, schedule: Q04DX003 (ip), vehicle: water 100 % of control

O=C(O)C(c1ccccc1)C1CCCC1 (stereo not drawn)
inactive: [3] 100 % of control | [4] 95 % of control | [5] 109 % of control

CC[N+](C)(C)CC
inactive: dose: 25.0 mg/kg/injection, schedule: Q01DX001 (ip), vehicle: saline 105 % of control | dose: 50.0 mg/kg/injection, schedule: Q01DX001 (ip), vehicle: saline 103 % of control | dose: 100.0 mg/kg/injection, schedule: Q01DX001 (ip), vehicle: saline 96 % of control and 117 % of control

O=C(c1ccccc1)C(Br)C(Br)C(=O)c1ccccc1 (stereo not drawn)
inactive: [6] 115 % of control | [7] 100 % of control | [8] 95 % of control

NC(Cc1ccc([N+](=O)[O-])cc1)C(=O)O (stereo not drawn)
inactive: [4] 105 % of control | [10] 100 % of control | dose: 100.0 mg/kg/injection, schedule: Q04DX003 (ip), vehicle: other 100 % of control | [5] 110 % of control | [11] 100 % of control | dose: 200.0 mg/kg/injection, schedule: Q04DX003 (ip), vehicle: other 104 % of control | dose: 400.0 mg/kg/injection, schedule: Q01DX009 (ip), vehicle: saline with Tween-80 90 % of control | dose: 400.0 mg/kg/injection, schedule: Q01DX009 (ip), vehicle: saline 86 % of control | dose: 400.0 mg/kg/injection, schedule: Q04DX003 (ip), vehicle: other 100 % of control
